Assay results from patent EP0642343B1, “Acridine carboxamides for the treatment of cancer” (XENOVA LIMITED, priority 1992, dated 1993).
pIC50: −log10 of the molar value. “And” between values parts separate entries of the source, which are not always exact repeats. Identical values can stand only once. Like-named read-outs stand apart in the source and are kept apart here.

Experiments:
human cell lines = assay: Cytotoxicity under continuous drug exposure, mean over human cell lines; type: cell-based; settings: continuous drug exposure over approx. 5 cell doubling times, read-out: mean IC50 value for human cell lines
Method: The latter value compared with 2 µM for the 4-pyridyl-quinoline analogue, 0.76 µM for amsacrine, 0.1 µM for the amsacrine analogue 4'-(9-[4-[N-methylcarboxamido]-5-methyl]-acridinylamino)-methanesulphon-m-anisidide ("CI-921") and 81 µM for etoposide.

[1] = system: P388 murine leukaemia (P/ACTD); settings: in vitro tests; reported by Schneider et al., Eur. J. Cancer Clin. Oncol. 1988; cited from earlier work
[2] = system: advanced colon 38 tumours; assay: Tumour growth delay, advanced subcutaneous colon 38 tumours in mice; type: in vivo
Method: Colon 38 carcinoma was obtained from the Mason Research Institute (Worchester, MA, USA) and was grown in BDF1 hosts. Tumour fragments (1 mm^3) were implanted subcutaneously in anaesthetised mice. Tumours had grown to the appropriate size 9 days after implantation. A melanoma tumour line (WADH) was developed in the Cancer Research Laboratory. Tumour cells were grown in culture and 1 x 10^6 cells were implanted intradermally into the flank of nude (C57BI/J genetic background) mice. Mice were grown under sterile surroundings until tumours were of appropriate size.
Tumours were measured 3x (colon 38) or 2x (xeno-graft) weekly with callipers and tumour volumes calculated as 0.52a^2b, where a and b were the minor and major tumour axes. Tumour growth delays were measured at a time when tumour volumes of treated and control animals had increased by 4-fold.
The effects of five compounds, • (i) DACA • (ii) N-[2-(dimethylamino)ethyl]-9-methoxyphen-azine-1-carboxamide (compound 28 of J. Med. Chem., 1987, 30, 843-851), • (iii) N-[2-(dimethylamino) ethyl]-2-phenylquino-line-8-carboxamide (compound 6 of J. Med. Chem. 1988, 31, 1048-1052), • (iv) N-[2-(dimethylamino)ethyl]-2-(4-pyridyl)-guinoline-8-carboxamide (compound 18 of J. Med. Chem., 1989, 32, 396-401), and • (v) N-[2-(dimethylamino)ethyl]-9-bromo-dibenzo-[1,4]-dioxin-1-carboxamide (compound 20 of J. Med. Chem. 1992, 35, 258-266) on the growth of advanced colon 38 tumours in mice was investigated by implanting tumour fragments subcutaneously and allowing them to grow until they had reached a diameter of 5-8 mm.

[3] = system: primary human melanoma cultures; assay: cells; settings: for pIC50: Homo sapiens
Method: Acridine carboxamide hydrochloride, synthesised in the Cancer Research Laboratory (Atwell G.J., et al., J.Med. Chem. 1987, 30, 664-669), and amsacrine isethionate, obtained from the Parke-Davis Division of the Warner-Lambert Company, Ann Arbor, USA, were dissolved in 50% v/v aqueous ethanol to make stock solutions of 2-5 mmol/l and stored at -20°C. Other cytotoxic drugs were available either from the NCI repository (Monks A., et al., J. Natl. Cancer Inst. 1991, 83, 757-766) or were obtained as described in Marshall E.S., et al., J. Natl. Cancer Inst. 1992, 84, 341-344 and Finlay, et al., Eur. J. Cancer din. Oncol. 1986, 22, 655-662. Cell lines were from the NCI repository except for MM-96 (Dr. R. Whitehead, Ludwig Institute, Melbourne, Australia), FME (Dr. K.M. Tveit, Norwegian Radium Hospital, Oslo, Norway) and Jurkat normal and multidrug-resistant lines (Dr. K. Snow and Dr. W. Judd, Department of Cellular and Molecular Biology, University of Auckland). Melanoma tissue was obtained from patients with pathologically confirmed metastatic and recurrent melanomas under Auckland Hospital Ethical Committee guidelines. Cells were released by digestion of tissue (at 50 mg.ml^-1) with collagenase (1 mg.ml^-1) and DNAase (50 µg.ml^-1) with continuous stirring at 37°C for 1 to 2 hours, and cultured as previously described (Marshall E.S., et al., J. Natl. Cancer Inst. 1992, 84, 341-344).
Tumour cell lines were cultured in 96-well plates. Growth of NCI cell lines was assessed using sulpho-rhodamine B staining (Skehan P., et al., J. Natl. Cancer Inst. 1990, 82, 1107-1112), that of the leukaemia lines with (4,5-dimethylthiazole-2-yl)-2,5-diphenyltetrazolium (MTT) staining (Mosmann T., J. Immun. Methods 1983, 65, 55-63) and that of the primary human tumour material by ^3H-thymidine incorporation (Marshall E.S., et al., J. Natl. Cancer Inst. 1992, 84, 341-344). Primary tumour material was cultured in 96-well plates in which the wells were coated with agarose to inhibit selectively the growth of normal cells. (Marshall E.S., et al., J. Natl. Cancer Inst. 1992, 84, 341-344). Primary cultures were incubated at 37°C in sealed perspex boxes containing a humidified atmosphere of 5% CO2 and 5% O2 in nitrogen for 7 days. 5-Methyl-[^3H]-thymidine (20 Ci.mmol^-1; 0.04 µCi per well), thymidine and 5-fluorodeoxyuridine (each at final concentrations of 0.5 µM) were added in medium to cultures (20 µl per well) 24 h before terminating the cultures. Cells were aspirated on to glass fibre filters using a multiple automated sample harvester (LKB Wallac OY Beta Harvester). The filter discs were washed for 15 seconds with water, dried, and the amount of tritium retained quantified by liquid scintillation.
IC50 values were defined as in Paull K.D., et al., J. Natl. Cancer Inst. 1989, 81:1088-1092, where growth, as indicated by staining or thymidine incorporation, corresponded to 50% of that of the control cultures. […] Variances of DELTA values were expressed as standard deviations in log10 units. Comparison of DELTA values was made using Pearson correlation coefficients. Resistance factors were defined as the ratios of IC50 values between the resistant line and the parent line. Statistical evaluation was performed either with NCI programmes, with RS/1 software (BBN Research Systems, Cambridge, MA, USA), or with Sigmaplot (Jandel Scientific, San Rafael, CA, USA).
DACA was also compared in a series of 12 primary melanoma cultures. Tissue was excised from human malignant melanomas and cultured using a modified 96-well assay system in which the cells were cultured on agarose and assayed for proliferation using the ^3H-thymidine incorporation assay as described in Marshall E.S., et al., J. Natl. Cancer Inst. 1992, 84, 341-344.

CN(C)CCNC(=O)c1cccc2cc3ccccc3nc12 [DACA, N-[2-(dimethylamino)ethyl]acridine-4-carboxamide]
pIC50 (human cell lines): 5.89 | cross-resistance of P/ACTD cells [1]: no cross-resistance | Growth delay ([2]; 100mg/kg each injection, ip, 2 doses, 0, 60 min, listed as (i)): 10 days and 12 days | Growth delay ([2]; 4 injections at 30 minute intervals, 180 + 120 + 120 + 120 µmol/kg, q7 days x 3): 21 days | Growth delay ([2]; day 11 after implantation, 3 injections at 4-day intervals): 4 days | Growth delay ([2]; i.p. single maximum tolerated dose 150 mg/kg body weight, Figure 5): 5 days | Growth delay ([2]; repetition of divided doses (200 mg/kg), Figure 5): 23 days | Growth delay ([2]; total dose 100 (mg/kg) ip, single dose (SD)): 4 days | Growth delay ([2]; total dose 150 ip, 2 doses, 0, 60 min): 5 days | Growth delay ([2]; total dose 150 ip, SD): 5 days | Growth delay ([2]; total dose 150x3 ip, SD every week x 3): 7 days | Growth delay ([2]; total dose 200 ip, 2 doses, 0, 30 min): 7 days | Growth delay ([2]; total dose 200 ip, 2 doses, 0, 60 min (2 expts)): 10 days and 12 days | Growth delay ([2]; total dose 200 ip, 2 doses, 0, 24 hours): 6 days | Growth delay ([2]; total dose 200 ip, 4 doses, 0, 30, 60, 90 min (65 + 45 + 45 + 45 mg/kg)): 6 days | Growth delay (days) ([2]; total dose 200 ip, SD): toxic | Growth delay ([2]; total dose 200 iv, 1 hour infusion): 7 days | Growth delay ([2]; total dose 200 iv, 3 hour infusion): 6.5 days | Growth delay ([2]; total dose 200x3 ip, (4 doses, 0, 30, 60, 90)x3): 23 days | Growth delay ([2]; tumour 5-8 mm, after adjustment of the administration schedule): more than 21 days | Growth delay ([2]; tumour 5-8 mm, intermittent schedule 270 mg/kg q7 days x 3): 3 days | Growth delay ([2]; tumour 5-8 mm, intermittent schedule 400 mg/kg q7 days x 3): 7 days | pIC50 ([3]; read-out: IC50 values): 5.82 to 6.70 | pIC50 ([3]; read-out: mean IC50): 6.23 | proportions of cells killed ([3]; human, primary melanoma cultures): > 99%
